Reference: patent US20220151979A1, “COMPOSITION FOR PREVENTION OR TREATMENT OF CARDIOVASCULAR AND METABOLIC DISEASE COMPRISING NORANHYDROICARITIN” (SEOUL NATIONAL UNIVERSITY HOSPITAL, priority 2019, published 2022)

Assays:
PCSK9 = experiment: Immunoblot of PCSK9 in HepG2 cells, noranhydroicaritin and pravastatin, pitavastatin, fluvastatin or simvastatin (Table 1); type: cell-based, human; conditions: noranhydroicaritin 20 μM singly, untreated = 1 ± 0.04
Description: The cells aliquoted by the method of Example 7 were treated with noranhydroicaritin or each statin (pravastatin, pitavastatin, fluvastatin, or simvastatin) singly or with noranhydroicaritin and a statin (pravastatin, pitavastatin, fluvastatin, or simvastatin) simultaneously, and the proteins were extracted. On an SDS-polyacrylamide gel, 30 μg of each protein was electrophoresed, and attached to a membrane, and then protein expression levels were confirmed using the respective antibodies: PCSK9 and LDLR.

atherosclerotic plaque = experiment: Gross plaque imaging in PCSK9-injected mouse carotid-ligation arteriosclerosis model; type: in vivo; conditions: AAV-PCSK9 virus, high-fat diet, 10 μg/g/day, 3 weeks after ligation, vehicle group about 45%
Description: By ligation to the carotid artery of 6- to 8-week-old mice, mechanical stress was applied to induce inflammation, thrombosis, oxidative stress, and shear stress, and the function and structure of the external carotid (EC) were changed to prepare an atherosclerosis model (FIG. 13). Specifically, ligation was performed on the left common carotid artery (LCA) after abdominal anesthesia by performing carotid artery ligation on mice fed a high-fat diet for one week. Partial ligation of three branches in the LCA, the external carotid artery (ECA), the internal carotid artery (ICA), and the occipital artery (OA) was performed. At this time, ICA and OA were ligated, and ECA was ligated separately. In mice subjected to ligation, the amount of blood flow to the heart decreased and the direction of blood flow changed, whereby an atherosclerosis model was prepared. Carotid artery ligation was performed one week after injection of AAV-PCSK9 Virus (1×10^11 IFU/mL) and noranhydroicaritin (10 μg/g/day). After 3 weeks of ligation, it was confirmed whether the atherosclerosis model was completed, and gross plaque imaging and immunofluorescence were performed to confirm the arteriosclerosis inhibitory effect of noranhydroicaritin.

SREBP 2 promoter = experiment: SREBP 2 promoter-reporter luciferase assay in HEK293T cells; type: cell-based, human; conditions: pGL4.14-SREBP-transfected HEK293T cells, 18 hours, compared to control
Description: In order to confirm the SREBP gene expression inhibitory effect of noranhydroicaritin, HEK293T cells were treated with noranhydroicaritin and kaempferol, and it was confirmed whether the expression of SREBP was inhibited through a luciferase assay.
i) A primer was prepared to contain KpnI and XhoI restriction enzyme sites in the SREBP 1 and 2 promoter gene region, and then PCR (polymerase chain reaction) and electrophoresis on an agarose gel were performed to isolate SREBP promoter region DNA. A pGL4.14-[luc2/Hygro] vector containing a firefly luciferase as a reporter gene was treated with the same restriction enzymes (KpnI and XhoI), and then isolated via agarose gel electrophoresis and gel extraction. The purely isolated SREBP promoter gene region and pGL4.14-[luc2/Hygro] vector were reacted for 1 hour using In-fusion DNA ligase (Takara), and then transformed into E. coli to prepare a promoter-reporter construct in which the SREBP promoter was inserted, and this was named pGL4.14-SREBP.
ii) In order to measure the transcriptional activity of the SREBP promoter gene, HEK293T cells were transfected with pGL4.14-SREBP, and then the luciferase activity of the cell extract was measured. […] Thereafter, the luciferase activity was measured by the method of Example 6. […]

LDLR = experiment: Immunoblot of LDLR in HepG2 cells; type: cell-based, human; conditions: HepG2 cells, 5, 10, 20 μM
Description: In order to confirm the effect of noranhydroicaritin to inhibit PCSK9 expression and increase LDLR expression, immunoblotting targeting PCSK9 and LDLR was performed and the expression levels were compared. β-Actin was used as a control.
In a 100 mm Petri dish, 1×10^6 HepG2 cells were aliquoted and treated with noranhydroicaritin at various concentrations (5 μM, 10 μM, and 20 μM), and then the cells were removed from the cell-culture dish and homogenized using a protein extraction solution (NP40, ELPIS BIOTECH, Korea) containing a protease inhibitor cocktail (Roche).
In order to prepare the total protein, the cells were extracted in RIPA lysis buffer (50 mM Tris-HCl (pH 7.4), 150 mM NaCl, 5 mM EDTA, 5 mM EGTA, 5 mM sodium fluoride, 2 mM sodium orthovanadate, 1% NP-40, 0.1% sodium dodecyl sulfate [SDS], 1 mM phenylmethylsulfonyl fluoride [PMSF], and protein inhibitor cocktail [Roche Diagnostics, Heidelberg, Germany]). The protein concentration in the lysate was measured using the Bio-Rad dye-binding micro assay. For immunoblotting, 30 μg of cell lysate was isolated via SDS-polyacrylamide gel electrophoresis (PAGE). The proteins were transferred onto the Hybond-ECL nitrocellulose membrane (Amersham Biosciences, Buckinghamshire, UK). […] HRP-conjugated secondary antibodies were detected using an ECL detection reagent.

F/480 = experiment: Immunofluorescence of macrophage marker F/480 in carotid artery, mouse arteriosclerosis model; type: in vivo; conditions: 10 μg/g/day
Description: Carotid artery ligation was performed one week after injection of AAV-PCSK9 Virus (1×10^11 IFU/mL) and noranhydroicaritin (10 μg/g/day). After 3 weeks of ligation, it was confirmed whether the atherosclerosis model was completed, and gross plaque imaging and immunofluorescence were performed to confirm the arteriosclerosis inhibitory effect of noranhydroicaritin.
Furthermore, the arteriosclerosis inhibitory effect of noranhydroicaritin was confirmed using immunofluorescence. Specifically, a mouse carotid artery was obtained and fixed in 4% PFA for one day, and then prepared into a block. As the inflammatory response in blood vessels progresses, the arteriosclerosis worsens, and thus the marker […] of macrophages causing arteriosclerotic inflammatory response and TNF-α, IL-1B, and MCP-1, which are pro-inflammatory cytokines secreted when the inflammatory response occurs, were stained. Staining was performed using the antibody for each of CAP1(1:200), PCSK9(1:100), F4/80(1:100), TNF-α(1:100), […], and MCP-1(1:100), then imaging was performed using a confocal microscope, and […] was evaluated.

CC(C)=CCc1c(O)cc(O)c2c(=O)c(O)c(-c3ccc(O)cc3)oc12 [Noranhydroicaritin, noranhydroicaritin]
PCSK9 (PCSK9): 0.34 ± 0.02
atherosclerotic plaque-formed area (atherosclerotic plaque): about 20%
SREBP 2 luciferase activity (SREBP 2 promoter): significantly decreased
LDLR expression (immunoblot) (LDLR): increased in a concentration-dependent manner
expression of F/480, a marker of macrophages (immunofluorescence) (F/480): also decreased
